Experimental data reported in publication PMC5513444, “The synthesis and evaluation of triazolopyrimidines as anti-tubercular agents” (Bioorganic & Medicinal Chemistry, 2017).
In brackets after ≈: the same amount, converted by molar mass. Several values for one entry are separate records, joined by “and”; a condition that tells them apart may be missing. Equal values may be shown once. Read-outs that look alike come from different tables or passages of the source.

Legend:
[1] = system: Bacillus subtilis Marburg; assay: MIC99 on solid medium, B. subtilis; type: cell-based; conditions: nutrient agar, 28 °C, 3–4 days
[2] = system: Mycobacterium smegmatis mc^2155; assay: MIC99 on solid medium, M. smegmatis; type: cell-based; conditions: Mycolicibacterium smegmatis, 3–4 days
HepG2 cells = assay: Cytotoxicity against HepG2 cell line (CellTiter-Glo); type: cell-based; conditions: for Selectivity index (SI) = IC50/MIC90: HepG2 IC50 / M. tuberculosis MIC90; for IC50: Homo sapiens, 48 h, HepG2, 2 days incubation, read-out: IC50 (concentration required to reduce the viability of HepG2 cells by 50%)
[3] = system: Pseudomonas aeruginosa HER1018 (PAO1); assay: MIC99 on solid medium, P. aeruginosa; type: cell-based; conditions: PAO1, 24 h, tryptic soy agar, 1 day
M. tuberculosis H37Rv [4] = assay: MIC90 against M. tuberculosis in liquid medium; type: cell-based, Mycobacterium tuberculosis; conditions: liquid medium 7H9-Tw-OADC, aerobic, 5 days, average ± SD of two independent experiments, read-out: MIC (MIC90, minimum concentration required to inhibit growth of M. tuberculosis by 90%)
Escherichia coli DH5α = assay: MIC99 on solid medium, E. coli; type: cell-based; conditions: 24 h, LB agar, 1 day
M. tuberculosis = assay: Kill kinetics against M. tuberculosis in liquid culture; type: cell-based, Mycobacterium tuberculosis; conditions: for Kill of non-replicating M. tuberculosis: non-replicating bacteria (starvation conditions, PBS-Ty), over 14–21 days; for Activity against replicating M. tuberculosis (kill kinetics): replicating bacteria in 7H9-Tw-OADC, over 21 days
M. tuberculosis H37Rv [5] = assay: MIC99 on solid medium, M. tuberculosis; type: cell-based, Mycobacterium tuberculosis; conditions: solid medium 7H10-OADC, 4 weeks, lowest concentration yielding less than 1% growth
[6] = system: Saccharomyces cerevisiae Y187; assay: MIC99 on solid medium, S. cerevisiae; conditions: YPD agar, 3–4 days
[7] = Turnover by mouse liver microsomes; type: in vitro ADME
Description: (§1) Based on in silico ADME predictions, three compounds were chosen to cover a range of cLogP values and were evaluated for their in vitro microsomal stability (Table 7). Rapid metabolism of compound 44 was observed, in rodent and human liver microsomes. The para-OCF3 analog 48 was also rapidly metabolized. The amide (49) had improved in vitro microsomal stability, with only 12% loss after 30 min in mouse microsomes, 22% loss in rat microsomes and 31% loss in human microsomes. The difference in stability for these three compounds is probably due to presence of more than one oxidatively-labile carbon in 44 and 48 (both have a two carbon linker), while 49 has only one such soft spot, although these have not been confirmed with metabolite identification studies.

[8] = Fraction unbound in mouse plasma; type: in vitro ADME; conditions: read-out: Mouse Fu,pl (fraction unbound in plasma)
From the text: Table 7 In vitro ADME and in vivo PK. | column: Mouse Fu,pl ^a

[9] = Turnover by rat liver microsomes; type: in vitro ADME
Description: as §1

[10] = Turnover by human liver microsomes; type: in vitro ADME
Description: as §1

[11] = In vivo mouse PK after oral and intravenous administration; conditions: male mice, oral 10 mg/kg
Description: The oral exposure of the three compounds was evaluated in male mice by comparing exposures following oral (PO) and intravenous (IV) administration of 10 and 1 mg/kg doses of compounds, respectively (Table 7).

[12] = Mycobacterium tuberculosis, H37RV, 120 h
[13] = Mycobacterium tuberculosis, H37RV, 672 h

Question: For `COc1ccc(CCNc2cc(-c3ccccn3)nc3ncnn23)cc1` [Compound 16, N-(4-Methoxyphenethyl)-5-(pyridin-2-yl)-[1,2,4]triazolo[1,5-a]pyrimidin-7-amine], which MIC99 [1] is on record?
Answer: > 100 µM

Question: And the MIC99 [2]?
Answer: > 100 µM

Question: What about the “Selectivity index (SI) = IC50/MIC90” value (HepG2 cells) of the same molecule?
Answer: >130

Question: What about the IC50 (HepG2 cells) of the same molecule?
Answer: > 100 µM

Question: And the MIC99 [3]?
Answer: > 100 µM

Question: And the MIC90 (M. tuberculosis H37Rv [4]; [12])?
Answer: 0.83 ± 0.26 µM (≈ 0.288 µg/mL)

Question: And the MIC99 (Escherichia coli DH5α)?
Answer: > 100 µM

Question: And the “Kill of non-replicating M. tuberculosis” value (M. tuberculosis)?
Answer: 2–3 log

Question: What about the “Activity against replicating M. tuberculosis (kill kinetics)” value (“Activity” below) (M. tuberculosis) of the same molecule?
Answer: static activity

Question: What about the MIC99 (M. tuberculosis H37Rv [5]; [13]) of the same molecule?
Answer: 13 µM (≈ 4.5 µg/mL)

Question: And the MIC99 (M. tuberculosis H37Rv [5])?
Answer: < 20 µM

Question: What about the melting point of the same molecule?
Answer: 172 to 173 °C

Question: And the “MIC99 S. cerevisiae” value [6]?
Answer: >100 µM

Question: For `Cc1ccc(CCNc2cc(-c3ccccc3)nc3ncnn23)cc1` [Compound 44, N-(4-Methylphenethyl)-5-phenyl-[1,2,4]triazolo[1,5-a]pyrimidin-7-amine], which “% turnover by liver microsomes in 30 min, Mouse” value (“% turnover … Mouse” below) [7] is on record?
Answer: 98.2%

Question: What about the fraction unbound [8] of the same molecule?
Answer: 0.015

Question: And the “Selectivity index (SI) = IC50/MIC90” value (HepG2 cells)?
Answer: 43

Question: What about the IC50 (HepG2 cells) of the same molecule?
Answer: 53 µM

Question: What about the MIC90 (M. tuberculosis H37Rv [4]; [12]) of the same molecule?
Answer: 1.4 ± 0.5 µM (≈ 0.461 µg/mL)

Question: What about the “% turnover by liver microsomes in 30 min, Rat” value (“% turnover … Rat” below) [9] of the same molecule?
Answer: 99.2%

Question: What about the “% turnover by liver microsomes in 30 min, Human” value (from here on “% turnover … Human”) [10] of the same molecule?
Answer: 68.1%

Question: And the Cmax [11]?
Answer: 604 nM

Question: What about the “PO Tmax” value [11] of the same molecule?
Answer: 0.25 h

Question: What about the “PO t1/2” value [11] of the same molecule?
Answer: 1.05 h

Question: For `FC(F)(F)Oc1ccc(CCNc2cc(-c3ccccc3)nc3ncnn23)cc1` [Compound 48, 5-Phenyl-N-(4-(trifluoromethoxy)phenethyl)-[1,2,4]triazolo[1,5-a]pyrimidin-7-amine], which “% turnover … Mouse” value [7] is on record?
Answer: 52.1%

Question: And the MIC99 [1]?
Answer: > 10 µM

Question: What about the MIC99 [2] of the same molecule?
Answer: > 10 µM

Question: What about the fraction unbound [8] of the same molecule?
Answer: 0.007

Question: What about the “Selectivity index (SI) = IC50/MIC90” value (HepG2 cells) of the same molecule?
Answer: >27

Question: And the IC50 (HepG2 cells)?
Answer: > 100 µM

Question: What about the MIC99 [3] of the same molecule?
Answer: > 100 µM

Question: And the MIC90 (M. tuberculosis H37Rv [4]; [12])?
Answer: 3.9 ± 1.1 µM (≈ 1.56 µg/mL)

Question: What about the MIC99 (Escherichia coli DH5α) of the same molecule?
Answer: > 10 µM

Question: What about the “Kill of non-replicating M. tuberculosis” value (M. tuberculosis) of the same molecule?
Answer: 2–3 log

Question: And the “Activity” value (M. tuberculosis)?
Answer: static activity

Question: And the MIC99 (M. tuberculosis H37Rv [5]; [13])?
Answer: 1.6 µM (≈ 0.639 µg/mL)

Question: What about the MIC99 (M. tuberculosis H37Rv [5]) of the same molecule?
Answer: < 20 µM

Question: What about the “% turnover … Rat” value [9] of the same molecule?
Answer: 52.7%

Question: What about the “% turnover … Human” value [10] of the same molecule?
Answer: 32.8%

Question: What about the “MIC99 S. cerevisiae” value [6] of the same molecule?
Answer: >10 µM

Question: What about the Cmax [11] of the same molecule?
Answer: 958 nM

Question: And the “PO AUC” value [11]?
Answer: 2.75 µM·h

Question: What about the “PO Tmax” value [11] of the same molecule?
Answer: 0.75 h

Question: What about the “PO t1/2” value [11] of the same molecule?
Answer: 2.49 h

Question: Which “% turnover … Mouse” value [7] does the source give for `COc1ccc(CC(=O)Nc2cc(-c3ccccc3)nc3ncnn23)cc1` [Compound 49, 2-(4-Methoxyphenyl)-N-(5-phenyl-[1,2,4]triazolo[1,5-a]pyrimidin-7-yl)acetamide] here?
Answer: 12% and 12.5%

Question: What about the MIC99 [1] of the same molecule?
Answer: > 10 µM

Question: What about the MIC99 [2] of the same molecule?
Answer: > 10 µM

Question: What about the “Selectivity index (SI) = IC50/MIC90” value (HepG2 cells) of the same molecule?
Answer: >73

Question: And the IC50 (HepG2 cells)?
Answer: > 100 µM

Question: What about the MIC99 [3] of the same molecule?
Answer: > 10 µM

Question: And the MIC90 (M. tuberculosis H37Rv [4]; [12])?
Answer: 1.5 ± 0.7 µM (≈ 0.539 µg/mL)

Question: And the MIC99 (Escherichia coli DH5α)?
Answer: > 10 µM

Question: What about the “Kill of non-replicating M. tuberculosis” value (M. tuberculosis) of the same molecule?
Answer: 2–3 log

Question: What about the “Activity” value (M. tuberculosis) of the same molecule?
Answer: static activity

Question: And the MIC99 (M. tuberculosis H37Rv [5]; [13])?
Answer: 3.1 µM (≈ 1.11 µg/mL)

Question: What about the MIC99 (M. tuberculosis H37Rv [5]) of the same molecule?
Answer: < 20 µM

Question: And the “% turnover … Rat” value [9]?
Answer: 22% and 21.8%

Question: And the “% turnover … Human” value [10]?
Answer: 31% and 30.6%

Question: And the “MIC99 S. cerevisiae” value [6]?
Answer: >10 µM

Question: And the Cmax [11]?
Answer: 62.8 nM

Question: And the “PO AUC” value [11]?
Answer: 0.187 µM·h

Question: What about the “PO Tmax” value [11] of the same molecule?
Answer: 1.5 h

Question: Which “Selectivity index (SI) = IC50/MIC90” value (HepG2 cells) does the source give for `FC(F)(F)Oc1ccc(CCNc2cc(-c3ccccn3)nc3ncnn23)cc1` [Compound 59, 5-(Pyridin-2-yl)-N-(4-(trifluoromethoxy)phenethyl)-[1,2,4]triazolo[1,5-a]pyrimidin-7-amine] here?
Answer: >72

Question: What about the IC50 (HepG2 cells) of the same molecule?
Answer: > 100 µM

Question: And the MIC90 (M. tuberculosis H37Rv [4]; [12])?
Answer: 1.6 ± 1.1 µM (≈ 0.641 µg/mL)

Question: What about the melting point of the same molecule?
Answer: 163 to 165 °C

Question: With `COc1ccc(CCN(C)c2cc(-c3ccccc3)nc3ncnn23)cc1` [Compound 61, N-(4-Methoxyphenethyl)-N-methyl-5-phenyl-[1,2,4]triazolo[1,5-a]pyrimidin-7-amine] as the molecule, how does the IC50 (HepG2 cells) read?
Answer: 17 µM

Question: And the MIC90 (M. tuberculosis H37Rv [4]; [12])?
Answer: > 20 µM

Question: And the melting point?
Answer: 170 to 171 °C

Question: With `COc1ccc(C2CCN(c3cc(-c4ccccn4)nc4ncnn34)C2)cc1` (stereo not drawn) [Compound 62, 7-(3-(4-Methoxyphenyl)pyrrolidin-1-yl)-5-(pyridin-2-yl)-[1,2,4]triazolo[1,5-a]pyrimidine] as the molecule, how does the IC50 (HepG2 cells) read?
Answer: 23 µM

Question: What about the MIC90 (M. tuberculosis H37Rv [4]; [12]) of the same molecule?
Answer: > 20 µM

Question: And the melting point?
Answer: 222 to 223 °C

Question: Which “Selectivity index (SI) = IC50/MIC90” value (HepG2 cells) does the source give for `COc1ccc(CCNc2cc(-c3ccccn3)nc3nc(C)nn23)cc1` [Compound 67, N-(4-Methoxyphenethyl)-2-methyl-5-(pyridin-2-yl)-[1,2,4]triazolo[1,5-a]pyrimidin-7-amine] here?
Answer: >26

Question: What about the IC50 (HepG2 cells) of the same molecule?
Answer: > 100 µM

Question: And the MIC90 (M. tuberculosis H37Rv [4]; [12])?
Answer: 3.9 ± 0.21 µM (≈ 1.41 µg/mL)

Question: What about the melting point of the same molecule?
Answer: 139 to 141 °C

Question: With `COc1ccc(CCNc2cc(-c3ccccn3)nc3nc(-c4ccccc4)nn23)cc1` [Compound 68, N-(4-Methoxyphenethyl)-2-phenyl-5-(pyridin-2-yl)-[1,2,4]triazolo[1,5-a]pyrimidin-7-amine] as the molecule, how does the IC50 (HepG2 cells) read?
Answer: > 100 µM

Question: And the MIC90 (M. tuberculosis H37Rv [4]; [12])?
Answer: > 20 µM

Question: What about the MIC90 (M. tuberculosis H37Rv [4]) of the same molecule?
Answer: >20 µM

Question: What about the melting point of the same molecule?
Answer: 146 to 148 °C

Question: With `COc1ccc(CCNc2cc(-c3ccccn3)nc3ccnn23)cc1` [Compound 69, N-(4-Methoxyphenethyl)-5-(pyridin-2-yl)pyrazolo[1,5-a]pyrimidin-7-amine] as the molecule, how does the “Selectivity index (SI) = IC50/MIC90” value (HepG2 cells) read?
Answer: 9

Question: What about the IC50 (HepG2 cells) of the same molecule?
Answer: 23 µM

Question: What about the MIC90 (M. tuberculosis H37Rv [4]; [12]) of the same molecule?
Answer: 2.5 ± 0.15 µM (≈ 0.864 µg/mL)

Question: And the melting point?
Answer: 116 to 117 °C

Question: What does the source list for `COc1ccc(CCNc2cc(-c3ccccn3)nc3nccn23)cc1` [Compound 70, N-(4-Methoxyphenethyl)-7-(pyridin-2-yl)imidazo[1,2-a]pyrimidin-5-amine]?
Answer: Selectivity index (SI) = IC50/MIC90 (HepG2 cells): 142; IC50 (HepG2 cells): 30 µM; MIC90 (M. tuberculosis H37Rv [4]; [12]): 0.22 ± 0.07 µM (≈ 0.076 µg/mL); melting point: 234 to 235 °C
